Experimental data reported in patent publication US20110172296A1, “MODULATION OF TRANSFORMING GROWTH FACTOR-BETA 1 EXPRESSION” (priority 2010, published 2011).
“And” between values parts separate entries of the source, which are not always exact repeats. Equal entries are not always repeated. In the oligonucleotide strings, read from the 5' end, every base follows the letter of its sugar. An asterisk marks phosphorothioate; unmarked linkages are phosphodiester. Other units and linkages are bracketed, terminal groups are in braces. A string of capitals states the bases alone. e = 2'-O-(2-methoxyethyl) (MOE); [5mC] = 5-methylcytosine; d = 2'-deoxy (DNA)

System: human TGF-beta1 mRNA
Test: Antisense inhibition of human TGF-beta1 mRNA in HuVEC cells, single 10 nM dose, Lipofectamine 2000 (Example 2)
Type: cell-based
Conditions: for % inhibition: 10 nM oligonucleotide, HuVEC, relative to untreated control cells, gapmers targeted to SEQ ID NO: 1; for inhibition of a TGF-beta1 mRNA: threshold lists of Oligo IDs, 10 nM
Procedure: Antisense oligonucleotides targeted to a TGF-beta1 nucleic acid were tested for their effects on TGF-beta1 mRNA in vitro. Cultured HuVEC cells at a density of 5,000 cells per well were transfected using Lipofectamine™ 2000 reagent with 10 nM antisense oligonucleotide for 4 hours. After a recovery period of approximately 24 hours, RNA was isolated from the cells and TGF-beta1 mRNA levels were measured by quantitative real-time PCR. TGF-beta1 mRNA levels were adjusted according to total RNA content, as measured by RIBOGREEN®. Results are presented as percent inhibition of TGF-beta1, relative to untreated control cells.
The chimeric antisense oligonucleotides in Tables 1 and 2 were designed as 2-13-5 MOE gapmers. Antisense molecules with this motif targeting TGF-beta1 are unique, and represent a novel chemical structure for an ASO directed against this target. The gapmers are 20 nucleotides in length, wherein the central gap segments are comprised of thirteen 2′-deoxynucleotides and are flanked on the 5′ side by wings comprising two nucleotides each and on the 3′ side by wings comprising five nucleotides each. Each nucleotide in the 5′ wing segment and each nucleotide in the 3′ wing segment has a 2′-MOE modification. The internucleoside linkages throughout each gapmer are phosphorothioate (P═S) linkages. All cytosine residues throughout each gapmer are 5-methylcytosines. “Target start site” indicates the 5′-most nucleotide to which the gapmer is targeted. “Target stop site” indicates the 3′-most nucleotide to which the gapmer is targeted. Each gapmer listed in Table 1 is targeted to SEQ ID NO: 1 (GENBANK Accession No. NM_000660.3). Each gapmer listed in Table 2 is targeted to SEQ ID NO: 2 (GENBANK Accession No. NT 011109.15 truncated from 14103000 to […]).

| Substance | % inhibition | inhibition of a TGF-beta1 mRNA |
| --- | --- | --- |
| 413967 (antisense eG*eA*dT*dG*dG*d[5mC]*d[5mC]*d[5mC]*dA*dG*dG*dG*d[5mC]*dG*d[5mC]*eG*eA*eA*eG*eG) [compound 413967] | 64% | 60% |
| 413968 (antisense eG*eA*dG*dA*dT*dG*dG*d[5mC]*d[5mC]*d[5mC]*dA*dG*dG*dG*d[5mC]*eG*e[5mC]*eG*eA*eA) [compound 413968] | 55% | – |
| 413969 (antisense e[5mC]*eG*dA*d[5mC]*dT*d[5mC]*d[5mC]*dT*dT*d[5mC]*d[5mC]*dT*d[5mC]*d[5mC]*dG*e[5mC]*eT*e[5mC]*e[5mC]*eG) [compound 413969] | 53% | – |
| 413971 (antisense eG*eG*d[5mC]*d[5mC]*dT*d[5mC]*dA*dG*dG*d[5mC]*dT*dG*d[5mC]*dT*d[5mC]*e[5mC]*eT*e[5mC]*eG*eG) [compound 413971] | 78% | 60% and 65% and 70% and 75% |
| 413972 (antisense e[5mC]*eT*d[5mC]*dG*dT*d[5mC]*d[5mC]*d[5mC]*dT*d[5mC]*d[5mC]*dT*d[5mC]*d[5mC]*d[5mC]*eG*e[5mC]*eT*e[5mC]*e[5mC]) [compound 413972] | 61% | 60% |
| 413973 (antisense e[5mC]*eA*dA*d[5mC]*dG*dG*dA*dA*dA*dA*dG*dT*d[5mC]*dT*d[5mC]*eA*eA*eA*eA*eG) [compound 413973] | 25% | – |
| 413974 (antisense eG*eG*d[5mC]*dA*dA*d[5mC]*dG*dG*dA*dA*dA*dA*dG*dT*d[5mC]*eT*e[5mC]*eA*eA*eA) [compound 413974] | 69% | 60% and 65% |
| 413975 (antisense eG*e[5mC]*dG*dG*d[5mC]*dA*dA*d[5mC]*dG*dG*dA*dA*dA*dA*dG*eT*e[5mC]*eT*e[5mC]*eA) [compound 413975] | 73% | 60% and 65% and 70% |
| 413976 (antisense e[5mC]*eA*dG*d[5mC]*dG*dG*d[5mC]*dA*dA*d[5mC]*dG*dG*dA*dA*dA*eA*eG*eT*e[5mC]*eT) [compound 413976] | 72% | 60% and 65% and 70% |
| 413977 (antisense e[5mC]*e[5mC]*d[5mC]*dA*dG*d[5mC]*dG*dG*d[5mC]*dA*dA*d[5mC]*dG*dG*dA*eA*eA*eA*eG*eT) [compound 413977] | 57% | – |
| 413978 (antisense e[5mC]*eT*d[5mC]*d[5mC]*d[5mC]*dA*dG*d[5mC]*dG*dG*d[5mC]*dA*dA*d[5mC]*dG*eG*eA*eA*eA*eA) [compound 413978] | 67% | 60% and 65% |
| 413980 (antisense e[5mC]*e[5mC]*dG*dG*d[5mC]*dT*d[5mC]*d[5mC]*d[5mC]*dA*dG*d[5mC]*dG*dG*d[5mC]*eA*eA*e[5mC]*eG*eG) [compound 413980] | 74% | 60% and 65% and 70% |
| 413981 (antisense e[5mC]*eT*d[5mC]*d[5mC]*dG*dG*d[5mC]*dT*d[5mC]*d[5mC]*d[5mC]*dA*dG*d[5mC]*dG*eG*e[5mC]*eA*eA*e[5mC]) [compound 413981] | 71% | 60% and 65% and 70% |
| 413983 (antisense eG*e[5mC]*dG*d[5mC]*d[5mC]*dT*d[5mC]*d[5mC]*dG*dG*d[5mC]*dT*d[5mC]*d[5mC]*d[5mC]*eA*eG*e[5mC]*eG*eG) [compound 413983] | 78% | 60% and 65% and 70% and 75% |
| 413984 (antisense e[5mC]*e[5mC]*dG*d[5mC]*dG*d[5mC]*d[5mC]*dT*d[5mC]*d[5mC]*dG*dG*d[5mC]*dT*d[5mC]*e[5mC]*e[5mC]*eA*eG*e[5mC]) [compound 413984] | 71% | 60% and 65% and 70% |
| 413985 (antisense e[5mC]*e[5mC]*d[5mC]*d[5mC]*dG*d[5mC]*dG*d[5mC]*d[5mC]*dT*d[5mC]*d[5mC]*dG*dG*d[5mC]*eT*e[5mC]*e[5mC]*e[5mC]*eA) [compound 413985] | 66% | 60% and 65% |
| 413986 (antisense eG*eT*d[5mC]*d[5mC]*d[5mC]*d[5mC]*dG*d[5mC]*dG*d[5mC]*d[5mC]*dT*d[5mC]*d[5mC]*dG*eG*e[5mC]*eT*e[5mC]*e[5mC]) [compound 413986] | 69% | 60% and 65% |
| 413987 (antisense eA*eG*dG*dT*d[5mC]*d[5mC]*d[5mC]*d[5mC]*dG*d[5mC]*dG*d[5mC]*d[5mC]*dT*d[5mC]*e[5mC]*eG*eG*e[5mC]*eT) [compound 413987] | 71% | 60% and 65% and 70% |

| Substance | % inhibition | inhibition of a TGF-beta1 mRNA |
| --- | --- | --- |
| 413988 (antisense eA*eA*dG*dT*d[5mC]*d[5mC]*dT*dG*d[5mC]*d[5mC]*dT*d[5mC]*d[5mC]*dT*d[5mC]*eG*e[5mC]*eG*eG*eG) [compound 413988] | 63% | 60% |
| 413989 (antisense eG*eG*d[5mC]*dA*dA*dA*dG*dG*dG*dA*dG*dG*d[5mC]*dG*dG*eT*e[5mC]*eT*eG*eG) [compound 413989] | 41% | – |
| 413990 (antisense eG*e[5mC]*dG*dG*d[5mC]*dA*dA*dA*dG*dG*dG*dA*dG*dG*d[5mC]*eG*eG*eT*e[5mC]*eT) [compound 413990] | 59% | – |
| 413991 (antisense e[5mC]*eG*dG*d[5mC]*dG*dG*d[5mC]*dA*dA*dA*dG*dG*dG*dA*dG*eG*e[5mC]*eG*eG*eT) [compound 413991] | 69% | 60% and 65% |
| 413992 (antisense e[5mC]*e[5mC]*d[5mC]*dG*dG*d[5mC]*dG*dG*d[5mC]*dA*dA*dA*dG*dG*dG*eA*eG*eG*e[5mC]*eG) [compound 413992] | 60% | 60% |
| 413993 (antisense eT*e[5mC]*d[5mC]*d[5mC]*d[5mC]*dG*dG*d[5mC]*dG*dG*d[5mC]*dA*dA*dA*dG*eG*eG*eA*eG*eG) [compound 413993] | 52% | – |
| 413994 (antisense e[5mC]*eG*dT*d[5mC]*d[5mC]*d[5mC]*d[5mC]*dG*dG*d[5mC]*dG*dG*d[5mC]*dA*dA*eA*eG*eG*eG*eA) [compound 413994] | 67% | 60% and 65% |
| 413995 (antisense e[5mC]*e[5mC]*d[5mC]*dG*dA*dG*dG*dG*d[5mC]*dT*dG*dG*dT*d[5mC]*d[5mC]*eG*eG*eA*eA*eT) [compound 413995] | 72% | 60% and 65% and 70% |
| 413996 (antisense eA*eA*dG*dT*d[5mC]*dT*dT*dT*dG*d[5mC]*dG*dG*dG*dA*dG*eG*e[5mC]*e[5mC]*eG*eG) [compound 413996] | 51% | – |
| 413997 (antisense eA*eA*dA*dA*dG*dT*d[5mC]*dT*dT*dT*dG*d[5mC]*dG*dG*dG*eA*eG*eG*e[5mC]*e[5mC]) [compound 413997] | 41% | – |
| 413998 (antisense eG*eG*dA*dA*dA*dA*dG*dT*d[5mC]*dT*dT*dT*dG*d[5mC]*dG*eG*eG*eA*eG*eG) [compound 413998] | 13% | – |
| 413999 (antisense eG*eG*d[5mC]*dT*d[5mC]*dA*dG*dG*dA*dG*dA*d[5mC]*dA*dG*dG*e[5mC]*e[5mC]*eG*eG*eG) [compound 413999] | 72% | 60% and 65% and 70% |
| 414000 (antisense eA*eA*dG*dG*dG*dT*d[5mC]*dT*dA*dG*dG*dA*dT*dG*d[5mC]*eG*e[5mC]*eG*eG*eG) [compound 414000] | 75% | 60% and 65% and 70% and 75% |
| 414001 (antisense e[5mC]*eA*dG*dG*dT*d[5mC]*dG*dG*dA*dG*dA*dG*dA*dG*dA*eT*e[5mC]*e[5mC]*eG*eT) [compound 414001] | 78% | 60% and 65% and 70% and 75% |
| 414002 (antisense eG*eG*dT*dG*dG*dG*dT*dG*dG*dT*d[5mC]*dT*dT*dG*dA*eA*eT*eA*eG*eG) [compound 414002] | 80% | 60% and 65% and 70% and 75% and 80% |
| 414003 (antisense eA*eA*dG*dG*dT*dG*dG*dG*dT*dG*dG*dT*d[5mC]*dT*dT*eG*eA*eA*eT*eA) [compound 414003] | 67% | 60% and 65% |
| 414004 (antisense eA*eG*dA*dA*dG*dG*dT*dG*dG*dG*dT*dG*dG*dT*d[5mC]*eT*eT*eG*eA*eA) [compound 414004] | 70% | 60% and 65% and 70% |
| 414005 (antisense e[5mC]*e[5mC]*dA*dG*dA*dA*dG*dG*dT*dG*dG*dG*dT*dG*dG*eT*e[5mC]*eT*eT*eG) [compound 414005] | 77% | 60% and 65% and 70% and 75% |
